Reference: PMC8780580, “The Neuroactive Steroid Pregnanolone Glutamate: Anticonvulsant Effect, Metabolites and Its Effect on Neurosteroid Levels in Developing Rat Brains” (Pharmaceuticals, 2021)
Where a name gives a salt, the structure may show the parent alone.

Test: Steroidomic (GC-MS/MS) analysis of hippocampal tissue after PA-G administration;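 also: hippocampal steroids quantified by GC-MS/MS, covering free and conjugated forms after hydrolysis, compared against intact rats and rats injected with CDX vehicle alone, five animals per group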
Details: for measurable concentration in the rat brain: after PA-G i.p.; for fold increase in the concentration in the rat hippocampus above the basal levels / percentage of total significantly increased (5β) steroids in the rat hippocampus / concentration at 20 min: 20 min after PA-G i.p., 1 mg/kg in CDX; for concentration at 20 min: male, Wistar, rat, in vivo, ip, Steroid concentration in hippocampal tissue, PA-G-Treated (P)
Procedure: In a separate experiment, samples of the hippocampus were obtained from male albino Wistar rats in 6 experimental groups consisting of P12 and P25 animals that were either intact (I), controls (C, i.p. application of a solution of CDX), or in the experimental group (i.p. application of PA-G in a solution of CDX at a dose of 1 mg/kg). Each group consisted of 5 animals. The animals were sacrificed using ether anaesthesia (Penta, Czech Republic) 30 min after administration of the drug. The hippocampi were quickly removed, weighed, and frozen at −80 °C in sterile plastic microvials until analysis.
An amount of 17–100 mg of the hippocampal tissue was minced and then administered into screw-cap tubes. Next, 2 mL of methanol with a mixture of internal standards was added, and the samples were incubated for 1 week in a refrigerator at 4 °C with agitation for 2 min once a day. Afterwards, the extract was transferred into new screw-cap tubes and dried in a vacuum centrifuge at 45 °C. After that, 1 mL of water of chromatographic purity was added, and the samples were further treated as described in our recently published paper [76].
Briefly, the unconjugated steroids were extracted from a testing sample with diethyl-ether, the extract was dried, and the lipids were separated by partitioning between a mixture of methanol with water (4:1, v/v) and pentane. The pentane phase was discarded, and the polar phase was dried and used for further analysis of the unconjugated steroids. Steroid conjugates remaining in the polar residue after diethyl ether were hydrolyzed to their parent hydroxy steroids (unconjugated molecules) and analyzed.

**Q.** With 17α-hydroxyprogesterone as the compound, how does the “measurable concentration in the rat brain” value (1 mg/kg) read?
**A.** The value was “did not detect measurable concentrations”.

**Q.** For `C[C@]12CC[C@@H](O)C[C@H]1CC[C@@H]1[C@@H]2[C@@H](O)C[C@]2(C)[C@@H](C(=O)CO)CC[C@@H]12` [3α,5β-THCC, 3α,5β-tetrahydrocorticosterone], which “fold increase in the concentration in the rat hippocampus above the basal levels” value (shortened to “fold increase in the concentration”) (P12) is on record?
**A.** Its value is 4.47 x.

**Q.** What about the “percentage of total significantly increased (5β) steroids in the rat hippocampus” value (P12, 1 mg/kg) of the same compound?
**A.** The value was “approximately 8%”.

**Q.** And the “percentage of total significantly increased (5β) steroids in the rat hippocampus” value (P12, listed as 3α,5β-Tetrahydrocorticosterone (3α,5β-THCC), 1 mg/kg)?
**A.** Its value is 8.12%.

**Q.** What about the “fold increase in the concentration” value (P25) of the same compound?
**A.** The value was 1 x.

**Q.** And the “percentage of total significantly increased (5β) steroids in the rat hippocampus” value (P25)?
**A.** The value was “less than 0.01%”.

**Q.** Which “fold increase in the concentration” value (P12) does the source give for `C[C@H](O)[C@@]1(O)CCC2C3CC[C@@H]4C[C@H](O)CC[C@]4(C)C3CC[C@@]21C` (stereo partly drawn) [3α,17α,20α-Trihydroxy-5β-pregnane] here?
**A.** Its value is 9.16 x.

**Q.** What about the “percentage of total significantly increased (5β) steroids in the rat hippocampus” value (P12) of the same compound?
**A.** Its value is 0.74%.

**Q.** What about the “fold increase in the concentration” value (P25) of the same compound?
**A.** Its value is 2.39 x.

**Q.** What about the “percentage of total significantly increased (5β) steroids in the rat hippocampus” value (P25) of the same compound?
**A.** The value was 1.05%.

**Q.** And the concentration at 20 min (1 mg/kg, 12-day-old rats)?
**A.** Its concentration at 20 min is 5.86 ng/g.

**Q.** And the concentration at 20 min (1 mg/kg, 25-day-old rats)?
**A.** The concentration at 20 min was 0.951 ng/g.

**Q.** For `C[C@H](O)[C@H]1CCC2C3CC[C@@H]4C[C@H](O)CC[C@]4(C)C3CC[C@@]21C` (stereo partly drawn) [3α,20α-Dihydroxy-5β-pregnane], which “fold increase in the concentration” value (P12) is on record?
**A.** Its value is 78.1 x.

**Q.** What about the “percentage of total significantly increased (5β) steroids in the rat hippocampus” value (P12) of the same compound?
**A.** Its value is 1.23%.

**Q.** What about the “fold increase in the concentration” value (P25) of the same compound?
**A.** Its value is 15.7 x.

**Q.** What about the “percentage of total significantly increased (5β) steroids in the rat hippocampus” value (P25) of the same compound?
**A.** The value was 1.72%.

**Q.** What about the concentration at 20 min (1 mg/kg, 12-day-old rats) of the same compound?
**A.** The concentration at 20 min was 8.42 ng/g.

**Q.** What about the concentration at 20 min (1 mg/kg, 25-day-old rats) of the same compound?
**A.** The concentration at 20 min was 0.919 ng/g.

**Q.** With `CC(=O)[C@H]1CCC2C3CC[C@@H]4CC(=O)CC[C@]4(C)C3CC[C@@]21C` (stereo partly drawn) [5β-Dihydroprogesterone, 5β-dihydroprogesterone] as the compound, how does the “fold increase in the concentration” value (P12) read?
**A.** The value was 19 x.

**Q.** And the “percentage of total significantly increased (5β) steroids in the rat hippocampus” value (P12)?
**A.** Its value is 0.07%.

**Q.** What about the “fold increase in the concentration” value (P25) of the same compound?
**A.** Its value is 1.9 x.

**Q.** What about the “percentage of total significantly increased (5β) steroids in the rat hippocampus” value (P25) of the same compound?
**A.** The value was 0.09%.

**Q.** What about the concentration at 20 min (1 mg/kg, 12-day-old rats) of the same compound?
**A.** The concentration at 20 min was 0.477 ng/g.

**Q.** And the concentration at 20 min (1 mg/kg, 25-day-old rats)?
**A.** The concentration at 20 min was 0.0943 ng/g.

**Q.** With `CC(=O)[C@@]1(O)CCC2C3CC[C@H]4C[C@H](O)CC[C@]4(C)C3CC[C@@]21C` (some centres unmarked) [17-Hydroxyallopregnanolone] as the compound, how does the concentration at 20 min (1 mg/kg, 12-day-old rats) read?
**A.** Its concentration at 20 min is 8.36 ng/g.

**Q.** And the concentration at 20 min (1 mg/kg, 25-day-old rats)?
**A.** The concentration at 20 min was 3.19 ng/g.

**Q.** Which results are given for `CC(=O)[C@@]1(O)CC[C@H]2[C@@H]3CC[C@@H]4C[C@H](OC(=O)[C@@H](N)CCC(=O)O)CC[C@]4(C)[C@H]3CC[C@@]21C` [17-Hydroxypregnanolone glutamate]?
**A.** fold increase in the concentration in the rat hippocampus above the basal levels (P12): 84.6 x; percentage of total significantly increased (5β) steroids in the rat hippocampus (P12): 0.04%; fold increase in the concentration in the rat hippocampus above the basal levels (P25): 14.7 x; percentage of total significantly increased (5β) steroids in the rat hippocampus (P25): 0.015%

**Q.** Which “measurable concentration in the rat brain” value (1 mg/kg) does the source give for `CC(=O)[C@@]1(O)CC[C@H]2[C@@H]3CC=C4CCCC[C@]4(C)[C@H]3CC[C@@]21C` [17α-hydroxypregn-5-en-20-one] here?
**A.** The value was “did not detect measurable concentrations”.

**Q.** What does the source list for `C[C@H](O)[C@H]1CC[C@H]2[C@@H]3CC[C@@H]4C[C@H](OC(=O)[C@@H](N)CCC(=O)O)CC[C@]4(C)[C@H]3CC[C@]12C` [(20S)-Hydroxypregnanolone glutamate]?
**A.** fold increase in the concentration in the rat hippocampus above the basal levels (P12): 99.7 x; percentage of total significantly increased (5β) steroids in the rat hippocampus (P12): 0.53%; fold increase in the concentration in the rat hippocampus above the basal levels (P25): 10.2 x; percentage of total significantly increased (5β) steroids in the rat hippocampus (P25): 0.93%

**Q.** What does the source list for `CC(=O)[C@H]1CC[C@H]2[C@@H]3CC[C@H]4C[C@H](O)CC[C@]4(C)[C@H]3CC[C@]12C` [Allopregnanolone, allopregnanolone]?
**A.** concentration at 20 min (1 mg/kg, 12-day-old rats): 0.246 ng/g; concentration at 20 min (1 mg/kg, 25-day-old rats): 0.144 ng/g

**Q.** For `C[C@]12CC[C@H](OS(=O)(=O)O)CC1=CCC1C2CC[C@@]2(C)C1CC[C@@H]2O` (some centres unmarked) [Androstenediol sulfate, androstenediol sulfate], which concentration at 20 min (1 mg/kg, 12-day-old rats) is on record?
**A.** Its concentration at 20 min is 6.07 ng/g.

**Q.** What about the concentration at 20 min (1 mg/kg, 25-day-old rats) of the same compound?
**A.** Its concentration at 20 min is 1.62 ng/g.

**Q.** With `C[C@]12CC[C@H]3[C@@H](CC=C4C[C@@H](O)CC[C@@]43C)[C@@H]1CC[C@@H]2O` [Androstenediol, androstenediol] as the compound, how does the concentration at 20 min (1 mg/kg, 12-day-old rats) read?
**A.** Its concentration at 20 min is 0.758 ng/g.

**Q.** What about the concentration at 20 min (1 mg/kg, 25-day-old rats) of the same compound?
**A.** Its concentration at 20 min is 0.364 ng/g.
